Patent US20260083727A1, “PHARMACEUTICAL FORMULATIONS OF NINTEDANIB FOR INTRAOCULAR USE” (Boehringer Ingelheim International GmbH, priority 2022, published 2026)

Test: Water solubility
Assay type: physicochemical
Settings: in words

solubility in water: very poor
SMILES: COC(=O)c1ccc2c(c1)NC(=O)/C2=C(\Nc1ccc(N(C)C(=O)CN2CCN(C)CC2)cc1)c1ccccc1 [nintedanib (free base)]
